In brackets after ≈: the same amount, converted by molar mass.
Experiments:
Type in all cases: functional
Candida albicans = experiment: Antimicrobial activity against Candida albicans B311
Staphylococcus aureus = experiment: Antimicrobial activity against Staphylococcus aureus NCTC 8530
Bacillus subtilis = experiment: Antimicrobial activity against Bacillus subtilis IFO 3007
Escherichia coli = experiment: Antimicrobial activity against Escherichia coli IFO 3545
Saccharomyces cerevisiae = experiment: Antimicrobial activity against Saccharomyces cerevisiae IFO 0203

Q: Which MIC (Candida albicans) does the source give for `Cc1ccnc2c1C(=O)c1ccccc1-2` [ONYCHINE] here?
A: 3.12 µg/mL (≈ 16 µM)

Q: And the MIC (Staphylococcus aureus)?
A: 50 µg/mL (≈ 256 µM)

Q: What about the MIC (Bacillus subtilis) of the same compound?
A: 50 µg/mL (≈ 256 µM)

Q: And the MIC (Escherichia coli)?
A: 50 µg/mL (≈ 256 µM)

Q: What about the MIC (Saccharomyces cerevisiae) of the same compound?
A: 50 µg/mL (≈ 256 µM)

Source: ChEMBL document CHEMBL1649342, “Synthesis of azafluorenone antimicrobial agents” (2010)
